Test results from patent US10933039B2, “Coolant mixtures” (Symrise AG, priority 2016, dated 2021).

Test: Sensory evaluation of coolant mixtures by a panel of 5 trained testers (cooling effect and flavor profile) in a standard chewy candy preparation
Type: in vivo
Conditions: panel score (5)=very true to (0)=largely not true; mean values of 5 trained testers; unsweetened, non-aromatized standard chewy candy preparation
Protocol: The cooling effect and flavor profile of various coolant mixtures were evaluated by a panel consisting of 5 trained testers. For this purpose, the mixtures were incorporated into an unsweetened and non-aromatized standard chewy candy preparation. The evaluation was reported according to the notation (5)=very true to (0)=largely not true. Data are mean values.

| Compound | Cooling effect is strong | Cooling effect occurs rapidly |
| --- | --- | --- |
| CC(C)C=O [C1, Isobutyraldehyde] | 3.2 | 2.1 |
| CC(C)CC=O [C2, Isovaleraldehyde] | 3.1 | 2.0 |
| CC(C)C(=O)O [C3, Isobutyric acid] | 3.0 | 2.2 |
| CC(C)CC(=O)O [C4, Isovaleric acid] | 3.1 | 2.5 |
